The IC50 is the concentration that gives 50% inhibition. One may read the AUC(0-t) as exposure summed from dosing to a finite time, without extrapolation to infinity. One may read the Tmax as the time from dosing to the highest level. As a reminder, the bioavailability is dose-corrected exposure relative to a reference, in per cent.

The text below walks through data of ChEMBL document CHEMBL5131534, “Identification of 2-Pyridinylindole-Based Dual Antagonists of Toll-like Receptors 7 and 8 (TLR7/8)” (ACS Med Chem Lett, 2022).

The nature of data set [1]: Drug concentration in mouse blood at 15 mg/kg, po measured at 24 hrs. The class given is ADME, organism-based. The conditions noted are these: read-out: Ct.
For data set [2], the system named is Mus musculus. In words: Anti-inflammatory activity against MRL/Ipr Systemic lupus erythematosus mouse model assessed as inhibition of anti-dsDNA Ab titer at 5 mg/kg, po administered for 8 weeks and measured 24 hrs post final dose relative to control. On the set-up: scale not given: the % may be the effect or the level left. The conditions noted are these: time 1368 hrs. The class given is functional.

Data set [3] concerns Mus musculus. The data set is described as follows: Anti-inflammatory activity against MRL/Ipr Systemic lupus erythematosus mouse model assessed as inhibition of urinary NGAL at 5 mg/kg, po administered for 8 weeks and measured 24 hrs post final dose relative to control. It counts as functional. More on the design: scale not given: the % may be the effect or the level left. As to conditions: time 1368 hrs.

Data set [4] is described as follows: Toxicity in MRL/Ipr Systemic lupus erythematosus mouse model assessed as drug tolerability at 0.1 to 20 mg/kg, po administered for 8 weeks and measured 24 hrs post final dose. The class given is organism-based. The conditions noted are these: in vivo, 1368 h, dose 0.1-20 mg/kg.
The test system of data set [5] is Mus musculus. The data set is described as follows: Anti-inflammatory activity against MRL/Ipr Systemic lupus erythematosus mouse model assessed as inhibition of anti-Sm/RNP Ab titer at 0.1 mg/kg, po administered for 8 weeks and measured 24 hrs post final dose relative to control. As to conditions: time 1368 hrs. It counts as functional. On the set-up: scale not given: the % may be the effect or the level left.

Data set [6] deals with T1, Toll-like receptor 9 (Mus musculus, UniProt Q9EQU3).
T1 sequence (Q9EQU3 whole entry): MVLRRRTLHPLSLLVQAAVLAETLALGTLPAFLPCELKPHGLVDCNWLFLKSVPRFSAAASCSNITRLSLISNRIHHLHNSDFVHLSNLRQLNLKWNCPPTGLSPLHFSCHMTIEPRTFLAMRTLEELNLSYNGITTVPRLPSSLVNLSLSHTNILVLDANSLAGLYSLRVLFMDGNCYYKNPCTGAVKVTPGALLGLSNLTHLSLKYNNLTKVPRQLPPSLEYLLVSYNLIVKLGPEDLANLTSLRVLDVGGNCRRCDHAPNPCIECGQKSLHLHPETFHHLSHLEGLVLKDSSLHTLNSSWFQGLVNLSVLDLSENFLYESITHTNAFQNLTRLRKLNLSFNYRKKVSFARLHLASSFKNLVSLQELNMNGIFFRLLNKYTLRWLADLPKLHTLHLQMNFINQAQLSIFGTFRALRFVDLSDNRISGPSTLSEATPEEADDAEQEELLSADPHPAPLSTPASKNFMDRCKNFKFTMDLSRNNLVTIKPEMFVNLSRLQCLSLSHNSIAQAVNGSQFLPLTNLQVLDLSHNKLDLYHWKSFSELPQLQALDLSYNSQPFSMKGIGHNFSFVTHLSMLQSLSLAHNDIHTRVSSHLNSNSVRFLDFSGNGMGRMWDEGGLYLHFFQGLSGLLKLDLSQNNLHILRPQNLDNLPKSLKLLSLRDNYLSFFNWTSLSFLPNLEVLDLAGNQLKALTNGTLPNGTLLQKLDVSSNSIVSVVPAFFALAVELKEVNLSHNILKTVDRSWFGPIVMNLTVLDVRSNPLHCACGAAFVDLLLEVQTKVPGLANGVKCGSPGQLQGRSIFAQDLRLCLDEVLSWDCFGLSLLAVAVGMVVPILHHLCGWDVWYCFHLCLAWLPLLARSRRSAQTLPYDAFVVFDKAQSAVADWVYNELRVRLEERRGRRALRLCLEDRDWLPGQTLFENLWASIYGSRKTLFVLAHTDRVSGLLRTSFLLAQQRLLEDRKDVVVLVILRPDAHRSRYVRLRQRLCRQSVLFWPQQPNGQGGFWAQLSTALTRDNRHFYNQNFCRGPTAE
In words: Antagonist activity at ODN-2216 stimulated TLR9 in mouse whole blood assessed as inhibition of IL-6 production by ELISA analysis. The class given is tissue-based. (In general: In an ELISA, binding on a coated surface is turned into a signal by an enzyme label.)

Data set [7] is described as follows: Volume of distribution at steady state in mouse blood at 5 mg/kg, iv. The class given is ADME, organism-based. As to conditions: read-out: Vdss.
A short description of data set [8]: Toxicity in MRL/Ipr Systemic lupus erythematosus mouse model assessed as relative spleen weight at 0.1 mg/kg, po administered for 8 weeks and measured 24 hrs post final relative to control. It counts as organism-based. The conditions noted are these: in vivo, 1368 h.
Data set [9] relates to Mus musculus. In words: Anti-inflammatory activity against MRL/Ipr Systemic lupus erythematosus mouse model assessed as inhibition of proteinuria at 1 mg/kg, po administered for 8 weeks and measured 24 hrs post final dose relative to control. The class given is functional. On the set-up: scale not given: the % may be the effect or the level left. As to conditions: time 1368 hrs.

The nature of data set [10]: AUClast in mouse blood at 5 mg/kg, iv. It counts as ADME, organism-based. On the set-up: time 0 - last, dose 5 mg/kg, route iv.
The nature of data set [11]: Toxicity in MRL/Ipr Systemic lupus erythematosus mouse model assessed as relative spleen weight at 20 mg/kg, po administered for 8 weeks and measured 24 hrs post final dose relative to control. The class given is organism-based. The conditions noted are these: in vivo, 1368 h.
In data set [12] the target is T2, Toll-like receptor 7 (Mus musculus, UniProt P58681).
T2 sequence (P58681 whole entry): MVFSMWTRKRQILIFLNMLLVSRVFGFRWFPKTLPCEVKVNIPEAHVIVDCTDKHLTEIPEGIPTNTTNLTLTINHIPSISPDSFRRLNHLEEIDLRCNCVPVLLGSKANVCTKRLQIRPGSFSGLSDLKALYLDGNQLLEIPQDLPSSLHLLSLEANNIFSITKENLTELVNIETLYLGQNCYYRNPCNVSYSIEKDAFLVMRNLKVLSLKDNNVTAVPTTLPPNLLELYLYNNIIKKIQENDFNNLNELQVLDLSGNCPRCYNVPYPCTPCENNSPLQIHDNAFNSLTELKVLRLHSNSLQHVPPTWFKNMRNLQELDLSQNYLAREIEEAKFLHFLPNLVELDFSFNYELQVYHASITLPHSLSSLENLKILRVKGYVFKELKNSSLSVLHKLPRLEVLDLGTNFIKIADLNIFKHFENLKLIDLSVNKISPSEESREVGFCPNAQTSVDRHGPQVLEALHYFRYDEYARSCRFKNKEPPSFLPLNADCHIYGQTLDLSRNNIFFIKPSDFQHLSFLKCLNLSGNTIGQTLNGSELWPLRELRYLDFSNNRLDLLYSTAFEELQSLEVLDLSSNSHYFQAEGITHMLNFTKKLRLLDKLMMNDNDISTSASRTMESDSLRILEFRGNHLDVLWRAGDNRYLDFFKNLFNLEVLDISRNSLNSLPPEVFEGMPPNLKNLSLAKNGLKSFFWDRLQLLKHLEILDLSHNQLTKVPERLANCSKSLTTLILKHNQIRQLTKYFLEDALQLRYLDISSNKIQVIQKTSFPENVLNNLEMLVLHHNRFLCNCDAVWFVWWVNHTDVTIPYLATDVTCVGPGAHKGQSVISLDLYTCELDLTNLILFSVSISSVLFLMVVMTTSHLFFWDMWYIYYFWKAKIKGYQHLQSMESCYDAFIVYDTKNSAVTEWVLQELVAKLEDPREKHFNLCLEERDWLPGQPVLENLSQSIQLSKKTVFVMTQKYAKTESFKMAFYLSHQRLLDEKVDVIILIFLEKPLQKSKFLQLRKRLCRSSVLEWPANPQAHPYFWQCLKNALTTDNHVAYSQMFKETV
In words: Antagonist activity at gardiquimod stimulated TRL7 in mouse whole blood assessed as inhibition of IL-6 production by ELISA analysis. The class given is tissue-based.

Data set [13] can be described thus: Tmax in mouse blood at 15 mg/kg, po. The class given is ADME, organism-based.
Data set [14] is described as follows: Oral bioavailability in mouse blood at 15 mg/kg. It counts as ADME, organism-based.

Where only a bound is given, the exact number is not on record here.

With `Cc1cc(-c2[nH]c3ccc(C4CCNCC4)cc3c2C(C)C)cc(C)n1`, the concentration at 24 h in data set [1] was found to be 22 nM. Further, the Activity is reported as 20% in [2]; 72% in data set [3]; “Non-Toxic” in [4]; 27% in [5]; 28% in [8]; 92% in data set [9]. The Activity in [11] came to 51%. The IC50 in data set [6] is more than 5000 nM; in data set [12], 0.3 nM. Moreover, the Vd in data set [7] came out at 113 L/kg. For the same compound, the area under the curve AUC(0-t) in data set [10] turned out to be 1.58 µM·h. Further, the Tmax in data set [13] is 5 h. Besides, in [14], the bioavailability was 58%.
